Measurements taken from US20260068882A1, “ARTHROPOD CONTROLLING COMPOSITION” (Firmenich SA, priority 2019, published 2026).

Experiments:
Aedes aegypti [1] = experiment: In vivo K&D assay on treated skin of human study participants
Text: For the K&D in vivo test [Klun J A, Debboun M. A new module for quantitative evaluation of controlling efficacy using human subjects. J Med Entomol. 2000; 37:177-81.], 3 study participants, 2 females and 1 male, showing low or no skin reactions against mosquito bites were recruited at the Swiss Tropical and Public Health Institute (Swiss TPH). […] The study was approved by the Ethics Commission of Northwest and Central Switzerland (Study no. PB_2017-00436-220/11) and all study participants signed an informed consent form. To avoid unwanted bias the participants were asked to avoid alcohol and products such as perfume, eau de cologne and lotions for at least 12 hours before and during the experiments. During the experiments the participants were also asked to avoid rubbing, touching or wetting the arthropod controlling compound-treated area as well as any activity that might lead to increased perspiration.
In the in vivo assay, a template was used to delineate 4 cm×5 cm areas on the skin that correspond to each of the six cell openings (3 cm×4 cm) on the bottom of the K&D module. Five areas were treated with the different tested stimuli. The module, with five host-seeking, 5- to 10-day-old mosquitoes in each cell, was then positioned over the treated skin area. The number of mosquitoes blood feeding within a 2-minute exposure was recorded. This procedure was repeated until six replicate exposures and observations (i.e. 30 mosquitoes) were made for the three study participants.

Aedes aegypti [2] = experiment: In vitro K&D (Klun & Debboun) assay, mosquitoes biting through treated cloth over membrane-blood reservoir; format: in vivo
Procedure: Controlling efficacy was tested against the yellow fever mosquito, A. aegypti Rockefeller strain.
Observations of controlling efficacy were made on host-seeking females of uniform age, 5 to 10 days post-eclosion from pupae. Tested hungry females had access to 10% sugar solution but were not blood-fed.
The controlling efficacy in vitro was measured using the Klun & Debboun (K&D) assay test module [Klun J A, Kramer M, Debboun M. A new in vitro bioassay system for discovery of novel human-use mosquito controlling compounds. J Am Mosq Control Assoc. 2005; 21:64-70], which is an adaptation of the K&D module [Klun J A, Debboun M. A new module for quantitative evaluation of controlling efficacy using human subjects. J Med Entomol. 2000; 37:177-81.], initially developed and used for quantitative measurement of the efficacy of mosquito controlling compounds on human subjects.
In the in vitro assay the module is coupled with a membrane-blood reservoir, consisting of a unit with six wells that are filled with 7 mL defibrinated pig blood maintained at a constant temperature of 38° C. and covered with a bovine collagen film (Devro plc, Edicol-MX400 CLR 100M REEL) as the membrane. Over the membrane a piece of cotton cloth (Baptist Roh, 100% cotton, weight: 69.0 g/m^2, thread density: warp and woof 26.5×26.5 thread/cm, Modessa Basel) was placed after being treated with 80 μL of the tested stimuli.
The K&D unit, containing five mosquitoes in each cell was finally placed on top of the treated cloth. Then the numbers of mosquitoes biting in each cell within a 3-min exposure were recorded. This procedure was repeated until 6 replicate exposures and observations (i.e. 30 mosquitoes) were made.

Aedes aegypti [3] = experiment: In vivo arm in cage test on forearm of human volunteers; details: for % of repellency MEAN: 20% in ethanol on forearm, three volunteers
Procedure: The Arm in the box method was adapted from the WHO Guidelines for efficacy testing of mosquito repellents for human skin (WHO/CDS/NTD/WHOPES/2009.4). The readiness of 100 hungry female mosquitoes A. aegypti to probe is assessed by inserting an untreated arm into the cage (40×40×40 cm) for 30 seconds (negative control) three times (once at the beginning, once at the fourth hour and once at the eighth hour), to determine probing activity.
Then, the product is applied onto the skin of the forearm of a human volunteer (1 ml per 600 cm^2) and after 5 minutes, this arm is inserted into the cage and exposed for 3 minutes. The assay take place in temperature (27±2° C.) and humidity (80±10% RH) regulated room on three different volunteers.

## Cc1ccc2c(c1)CC(C)(CO)C2 (stereo not shown) [ingredient #2, (2,5-dimethyl-2,3-dihydro-1H-inden-2yl)methanol]
Aedes aegypti [1]; 0.02% in ethanol on human skin
  % repulsion: 23.3%
Aedes aegypti [1]; 0.1% in ethanol on human skin
  % repulsion: 27.8%
Aedes aegypti [1]; 0.5% in ethanol on human skin
  % repulsion: 54.4%
Aedes aegypti [1]; 2.5% in ethanol on human skin
  % repulsion: 82.2%
Aedes aegypti [1]; 10% in ethanol on human skin
  % repulsion: 93.3%
Aedes aegypti [1]; on its own, in ethanol
  concentration from which a significant repellent effect is shown: ≥ 0.5%
Aedes aegypti [2]; 0.0008% in ethanol
  % repulsion: 21.5%
Aedes aegypti [2]; 0.004% in ethanol
  % repulsion: 25.3%
Aedes aegypti [2]; 0.02% in ethanol
  % repulsion: 33.8%
Aedes aegypti [2]; 0.1% in ethanol
  % repulsion: 57.1%
Aedes aegypti [2]; 0.5% in ethanol
  % repulsion: 84.6%
Aedes aegypti [2]; 2.5% in ethanol
  % repulsion: 92.3%
Aedes aegypti [2]; on its own, in ethanol
  concentration from which a significant repellent effect is shown: ≥ 0.1%
Aedes aegypti [3]; 1 h post application
  % of repellency MEAN: 98.83%
Aedes aegypti [3]; 2 h post application
  % of repellency MEAN: 97.79%
Aedes aegypti [3]; 3 h post application
  % of repellency MEAN: 96.72%
Aedes aegypti [3]; 4 h post application
  % of repellency MEAN: 94.71%
Aedes aegypti [3]; 5 h post application
  % of repellency MEAN: 94.05%
Aedes aegypti [3]; 6 h post application
  % of repellency MEAN: 91.99%
Aedes aegypti [3]; 7 h post application
  % of repellency MEAN: 90.91%
Aedes aegypti [3]; 8 h post application
  % of repellency MEAN: 84.67%
Aedes aegypti [3]; 20% in ethanol, for up to 7 h
  reduction of the number of mosquitoes landing on the volunteers' arm: more than 90%
